Assay [1] concerns the target T1, 5-hydroxytryptamine receptor 2C (Homo sapiens, UniProt P28335).
T1 sequence (P28335 whole entry): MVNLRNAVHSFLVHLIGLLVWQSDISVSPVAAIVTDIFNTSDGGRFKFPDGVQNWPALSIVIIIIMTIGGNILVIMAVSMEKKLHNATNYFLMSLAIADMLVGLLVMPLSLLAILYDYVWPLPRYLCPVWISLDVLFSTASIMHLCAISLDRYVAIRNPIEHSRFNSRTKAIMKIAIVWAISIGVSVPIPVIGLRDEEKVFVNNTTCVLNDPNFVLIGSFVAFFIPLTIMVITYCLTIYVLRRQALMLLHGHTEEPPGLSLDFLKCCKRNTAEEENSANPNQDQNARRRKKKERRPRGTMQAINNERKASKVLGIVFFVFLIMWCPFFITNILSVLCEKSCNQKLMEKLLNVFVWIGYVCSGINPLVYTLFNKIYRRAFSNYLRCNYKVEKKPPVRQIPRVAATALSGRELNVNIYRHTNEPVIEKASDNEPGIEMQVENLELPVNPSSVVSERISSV

In assay [2] the target is 5-hydroxytryptamine receptor 2A (Homo sapiens, UniProt P28223).
Description: Displacement of [125I]-DOI from recombinant human 5HT2A receptor
For assay [3], the system named is Rattus norvegicus. The assay can be described thus: Inhibition of DOI-induced hypolocomotion in rat at 1 mg/kg coadministered with DOI 10 mins prior testing. The class given is functional, organism-based. More on the design: dose 1 mg/kg.

Active and inactive are the calls of the source. The calls are words filed in the database; no cut-off is given here.

Chain of 5-hydroxytryptamine receptor 2A (P28223 whole entry): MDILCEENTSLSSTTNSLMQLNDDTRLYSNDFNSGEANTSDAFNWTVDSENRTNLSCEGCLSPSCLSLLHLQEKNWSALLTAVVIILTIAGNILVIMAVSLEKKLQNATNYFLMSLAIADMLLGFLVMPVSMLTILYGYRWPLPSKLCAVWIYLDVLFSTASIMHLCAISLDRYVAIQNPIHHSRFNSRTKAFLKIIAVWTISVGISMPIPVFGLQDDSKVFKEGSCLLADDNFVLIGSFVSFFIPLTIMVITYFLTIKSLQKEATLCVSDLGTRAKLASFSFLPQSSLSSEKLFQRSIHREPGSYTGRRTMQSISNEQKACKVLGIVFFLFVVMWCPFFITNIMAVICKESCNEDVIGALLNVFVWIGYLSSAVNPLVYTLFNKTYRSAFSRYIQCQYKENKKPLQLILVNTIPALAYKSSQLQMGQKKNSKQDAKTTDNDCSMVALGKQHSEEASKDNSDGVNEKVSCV

On to `O=C(c1cnn2ccccc12)N1CCN(CCc2ccc(F)cc2F)CC1`, for which the Ki (commonly a dissociation constant, usually derived from enzyme kinetics or from competition with a known ligand) stood at 0.246 µM in assay [1] and 0.0018 µM in assay [2].

Turning to `Cn1cc(Br)c(C(=O)N2CCN(CC(=O)c3ccc(F)cc3)CC2)n1`, the result in assay [3] was Active.

In the case of `N#Cc1cn2cccc(C(=O)N3CCN(CCc4ccc(F)cc4F)CC3)c2n1`, the Ki in assay [1] turned out to be 6.9 µM; in assay [2] it was 0.0028 µM.

For `O=C(c1cnn2c1CCCC2)N1CCN(CCc2ccc(F)cc2F)CC1`, the Ki in assay [1] turned out to be 2.88 µM; in assay [2], 0.018 µM.

In the case of `O=C(c1cnn2cc(Cl)ccc12)N1CCN(CCc2ccc(F)cc2F)CC1`, the Ki in assay [1] is 0.575 µM; in assay [2], 0.0059 µM.

As to `O=C(c1cc2ccccn2n1)N1CCN(CCc2ccc(F)cc2F)CC1`, the values for the Ki in assay [1] and in assay [2] were 0.467 µM and 0.0057 µM, respectively.

As for `Cc1cc(C)n2ccnc2c1C(=O)N1CCN(CCc2ccc(F)cc2F)CC1`, the values for the Ki in assay [1] and in assay [2] were 0.153 µM and 0.0036 µM, respectively.

Consider `O=C(c1cc(Br)cn2ccnc12)N1CCN(CCc2ccc(F)cc2F)CC1`, for which the Ki in assay [1] stood at 0.474 µM; in assay [2], 0.005 µM.

Turning to `O=C(c1cc2ncccn2n1)N1CCN(CCc2ccc(F)cc2F)CC1`, the Ki came out at 1.36 µM in assay [1] and 0.0056 µM in assay [2].

Take `O=C(c1nc2ccccn2c1Br)N1CCN(CCc2ccc(F)cc2F)CC1`: the Ki is 0.581 µM in assay [1] and 0.0019 µM in assay [2].

Take `Nc1cccc2nc(C(=O)N3CCN(CCc4ccc(F)cc4F)CC3)cn12`: the Ki in assay [1] is 0.152 µM; in assay [2] it was 0.0014 µM.

On to `O=C(c1cccn2cc(Cl)nc12)N1CCN(CCc2ccc(F)cc2F)CC1`, for which the Ki in assay [1] stood at 0.391 µM; in assay [2], 0.0015 µM.

The record behind these values is ChEMBL document CHEMBL1955741, “Identification of fused bicyclic heterocycles as potent and selective 5-HT(2A) receptor antagonists for the treatment of insomnia” (Bioorg Med Chem Lett, 2012).
